Where two headings read alike, the source gives them in different places.
Assays:
natural killer cells [1] = experiment: Cell counting during ex vivo expansion culture of natural killer cells (hematocytometer); format: cell-based, Human
Protocol: Human blood was collected, and then centrifuged using Ficoll (Ficoll-Paque™ PLUS, GE Healthcare) at 2500 rpm for 30 minutes, and peripheral blood mononuclear cells were isolated from the buffy coat. Thereafter, the isolated cells were co-cultured with the Jurkat cell line (Korea Cell Line Bank) and EBV-LCL cell line (Korea Cell Line Bank) (each cell line was irradiated with 100 Gy) at a peripheral blood mononuclear cell:Jurkat cell:EBV-LCL cell ratio of 1:0.5:0.5 in hRPMI medium (RPMI1640 medium (Corning) containing 10% FBS and 1% penicillin/streptomycin) in the presence of 500 U/ml of IL-2. During culture, the medium was replaced with hRPMI medium containing 500 U/ml of IL-2 once every 3 to 4 days.
In order to confirm the effect of an HDAC inhibitor on natural killer cells, the natural killer cells cultured for […] under the above-described conditions were treated with 125 nM of an HDAC inhibitor (SAHA, Sigma Aldrich, USA) once every 4 days, and the number of the cells was counted (FIG. 1A). At this time, the number of the cells was counted using a hematocytometer once every 4 days while the cells were further cultured for about 12 days, and during culture, the medium was replaced with hRPMI medium containing 500 U/ml of IL-2.

natural killer cells [2] = experiment: CD107a expression and IFN-g secretion of natural killer cells, flow cytometry; format: cell-based, Human
Protocol: 2.5 μl of FITC-labeled anti-CD107a mAb was added to the cells, and Golgi stop (BD Pharmingen) was added, followed by culture at 37° C. for 5 hours. After completion of culture, PerCPp-labeled CD3 mAb (Biolgend Cat No. 344814 clone SK7) and APC-labeled CD56mAb (Biolegend Cat No. 362504 clone 5.1H11) were added to the cells and allowed to react at 4° C. for 20 minutes. For intracellular FACS, the cells were washed with FACS buffer, fixed, permeabilized using a BD Cytoperm/Cytofix kit (BD Pharmingen, San Diego, CA), stained with PE-labeled IFN-g mAb, and then analyzed by flow cytometry. As a positive control, natural killer cells treated with PMA/ionomycin were used.

[3] = tested on: K562 and A375 target cancer cells; experiment: Cancer cell killing ability of natural killer cells, chromium release; format: cell-based, Human; details: K562 and A375 targets, ratio 1:1, 4 hours, versus untreated control (FIG. 4A)
Protocol: In order to examine whether the cancer cell killing ability of the natural killer cells expanded ex vivo by the method of Example 1 changes, K562 (Korea Cell Line Bank) and A375 (Korea Cell Line Bank) cells were prepared as target cancer cells, labeled with chromium for 1 hour, mixed with natural killer cells at a ratio of 1:1, and then co-cultured 37° C. After 4 hours, the supernatant was taken and the isotope value thereof was analyzed using a gamma counter.

natural killer cells [4] = experiment: Apoptosis by annexin V/7AAD staining, flow cytometry; format: cell-based, Human; details: NK cells expanded 10 days, treated, further cultured 8 days (FIG. 3)
Protocol: (§1) In the same manner as in Example 1, natural killer cells expanded ex vivo for 10 days were treated with an HDAC inhibitor and further cultured for 8 days. After harvesting the cells, 5×10^5 cells were obtained and apoptosis and proliferation thereof were measured using a flow cytometer.
(§2) To measure apoptosis, cells were harvested and stained with annexin V (2.5 μl) and 7AAD (2 μl) for 15 minutes, and then the proportion of the cells stained with annexin V/7AAD was analyzed using FACS Cantoll (BD). To measure cell proliferation, PerCP-labeled CD3 mAb (Biolgend Cat No. 344814 clone SK7) and APC-labeled CD56 mAb (Biolegend Cat No. 362504 clone 5.1H11) were added to the cells and allowed to react at 4° C. for 20 minutes. For intracellular FACS, the cells were washed with FACS buffer, and analyzed by staining Ki67 in the cell nucleus with the eBioscience Foxp3/transcription factor staining buffer set (eBioscience Cat No. 00-5523-00).

natural killer cells [5] = experiment: Cell proliferation by Ki67 staining, flow cytometry; format: cell-based, Human; details: NK cells expanded 10 days, treated, further cultured 8 days (FIG. 3)
Protocol: as §1, §2

NK cells [6] = details: Ogbomo et al., FEBS Letters 2007; cited from earlier work
NK cells [7] = details: cited from earlier work

**Q.** Which “number of cells compared with control group not treated with the HDAC inhibitor” value (natural killer cells [1]; NK cells cultured 6 days, then 125 nM once every 4 days, further culture about 12 days (FIG. 1B)) does the source give for `O=C(CCCCCCC(=O)Nc1ccccc1)NO` [SAHA] here?
**A.** The value was “more than double”.

**Q.** What about the “number of the natural killer cells compared to conventional culture method” value (natural killer cells [1]; PBMC co-cultured with Jurkat and EBV-LCL cells for 10 days, then treated) of the same compound?
**A.** Its value is “increased”.

**Q.** And the “proliferation of the NK cells by concentration” value (natural killer cells [1]; concentration of 62.5 nM (FIG. 2B))?
**A.** The value was “the highest”.

**Q.** And the number of cells (natural killer cells [1]; treated at an initial stage without being cultured)?
**A.** The number of cells was “no increase”.

**Q.** What about the “number of cells by timing of treatment” value (natural killer cells [1]; treated from co-culture day 6 (FIG. 2A)) of the same compound?
**A.** The value was “the highest”.

**Q.** What about the “proliferation of the NK cells (growth curve)” value (natural killer cells [1]; treated on day 0 of culture compared to treated on day 10 of culture (FIG. 1C)) of the same compound?
**A.** The value was “decreased”.

**Q.** What about the “interferon-gamma secretion of the cells” value (natural killer cells [2]; co-cultured 10 days, then treated) of the same compound?
**A.** Its value is “did not change”.

**Q.** And the “function of the natural killer cells: expression of CD107a and secretion of IFN-g” value (natural killer cells [2]; treated or not treated with the HDAC inhibitor (FIG. 4B))?
**A.** The value was “no change”.

**Q.** What about the “cancer cell killing ability of the natural killer cells” value [3] of the same compound?
**A.** Its value is “did not change”.

**Q.** What about the “apoptosis of the natural killer cells (annexin V/7AAD)” value (natural killer cells [4]) of the same compound?
**A.** Its value is “inhibited”.

**Q.** And the “proliferation of the natural killer cells (Ki67)” value (natural killer cells [5])?
**A.** The value was “did not change”.

**Q.** What about the “proliferation of the natural killer cells (Ki67)” value (natural killer cells [5]; listed as HDAC inhibitor) of the same compound?
**A.** Its value is “no significant change”.

**Q.** Which “proliferation of the NK cells” value (NK cells [6]) does the source give for `CCCC(CCC)C(=O)O` [valproic acid] here?
**A.** The value was “decreases”.

**Q.** What about the “cancer cell killing ability of the NK cells” value (NK cells [7]; Ogbomo et al., FEBS Letters 2007) of the same compound?
**A.** The value was “decreases”.

**Q.** Which “cancer cell killing ability of the NK cells” value (NK cells [7]; activated NK cells, Wang et al., Biol Blood Marrow Transplant 2012) does the source give for `O=C(CCCCCCC(=O)Nc1ccccc1)NO` [vorinostat] here?
**A.** The value was “no change”.
